From paper PMC5503158 (Cancer research, 2017)

Target: Bax (Homo sapiens, UniProt Q07812)
Test: competition fluorescence polarization assay with fluorescent Bak BH3 peptide
Format: binding

Sequence of Bax (Q07812 whole entry): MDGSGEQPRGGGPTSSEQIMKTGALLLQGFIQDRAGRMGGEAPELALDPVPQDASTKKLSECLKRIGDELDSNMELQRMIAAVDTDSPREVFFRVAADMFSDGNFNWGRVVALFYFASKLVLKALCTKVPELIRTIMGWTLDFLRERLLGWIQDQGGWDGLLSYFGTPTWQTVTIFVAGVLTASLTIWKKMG

## NCCOc1ccccc1C=C1c2ccccc2-c2ccc([N+](=O)[O-])cc21 [CYD-2-11]
  Ki: 34.1 ± 8.54 nM
